Reference: paper PMC12603041, “A neuroprotective tetrapeptide for treatment of acute traumatic brain injury” (EMBO Molecular Medicine, 2025)
Peptide text beside a SMILES is read from it.

Experiments:
injured brain [1] = conditions: mouse, in vivo
Experimental: (§1) Figure 2 Pharmacokinetic analysis of CAQK. (A) Mice with CCI received i.v. bolus of CAQK (12.5 mg/kg) at 4 h after CCI. Blood was collected at different time points, and plasma was analyzed by LC/MS. Plasma concentration of CAQK was plotted using WinNonlin. N = 3 per time point. (B) Plasma clearance data were used to calculate pharmacokinetic parameters using a two-compartment analysis. (C) CAQK accumulation was analyzed in brain homogenates from injured (ipsilateral) and uninjured (contralateral) sides at different time points after i.v. injection and plotted as ng/g of brain tissue. N = 3/group. Data were expressed as mean ± SEM. Differences were analyzed using an unpaired t-test. […] vs contralateral side. […] It is not in the table of panel B, so it is not attached as a condition.
CAQK (12.5 mg/kg) was injected i.v. into mice with CCI at 4 h post-injury. Blood was collected from these mice at different time points, and plasma was processed and analyzed by LC/MS after a reduction and alkylation step under reducing conditions to capture total peptide (free peptide and peptide bound to plasma proteins by disulfide formation). Plasma concentration was plotted using WinNonlin. […] Blood was collected at different time points at Day 1 and Day, 7 and plasma was analyzed by LC/MS to analyze CAQK. […]

[2] = CAQK plasma clearance in rats; assay type: in vivo, rat
Experimental: Figure EV2 CAQK plasma clearance in rats. (A) CAQK was injected daily i.v. in healthy adult Sprague-Dawley rats at a 10 mg/kg dose for 7 days. Blood was collected at different time points at Day 1 and Day 7, and plasma was analyzed by LC/MS to analyze CAQK. Plasma concentration of CAQK was plotted. N = 3 per time point. Plasma clearance data were also used to calculate pharmacokinetic parameters in (B). (C) FP measurement of CAQK binding to BSA. FAM-CAQK (20 nM) was incubated with BSA at the indicated concentration for 1 h at 37 °C. n = 3.
(§2) CAQK (12.5 mg/kg) was injected i.v. into mice with CCI at 4 h post-injury. Blood was collected from these mice at different time points, and plasma was processed and analyzed by LC/MS after a reduction and alkylation step under reducing conditions to capture total peptide (free peptide and peptide bound to plasma proteins by disulfide formation). Plasma concentration was plotted using WinNonlin. Similarly, for analysis in rats, CAQK (10 mg/kg) was injected i.v. into healthy Sprague-Dawley rats once daily for 7 days. Blood was collected at different time points at Day 1 and Day, 7 and plasma was analyzed by LC/MS to analyze CAQK. Plasma concentration of CAQK was plotted. N = 3 per time point.

in vivo = conditions: mouse, iv, 12.5 mg/kg
Experimental: as §1, §2

Safety study in CCI mice = assay type: in vivo, mouse; conditions: for ALP / ALT / BUN / GGT / TBIL: CCI mice, blood after two weeks, n = 5; for ALP / ALT / BUN: mean ± SD
Experimental: Male C57BL/6 mice (n = 5 per group) with CCI injury were intravenously administered daily with control PBS or with various concentrations (1, 5, and 25 mg/kg) of the CAQK peptide. After 2 weeks, blood was collected from the mice and analyzed for liver and kidney toxicity. Tests performed for liver function (ALP: alkaline phosphatase, ALT: alanine aminotransferase, TBIL total bilirubin, GGT G-glutamyl transferase) and kidney function (BUN: blood urea nitrogen). Results expressed as mean ± SD. For a more detailed safety analysis, Sprague-Dawley rats were randomized to four dose groups. CAQK or vehicle (0.9% sodium chloride injection, USP) was administered once daily by i.v. administration to male and female rats at 0 (vehicle),10, 100, or 300 mg/kg/day (Groups 1–4, respectively) for 7 consecutive days. All animals were euthanized and necropsied after blood sample collection for clinical pathology on Day 8. All animals in Groups 1–4 were evaluated for clinical observations, body weights, and clinical pathology (hematology, coagulation, and serum chemistry), gross necropsy observations and major organ weights. […]
Appendix Table S2. Safety study in CCI mice. C57BL/6 mice (n = 5 per group) with CCI injury were intravenously injecteddaily for 7 days with vehicle control (PBS)or with the shown concentration of the CAQK peptide. After two weeks, blood was collected from the mice and analyzed for liver and kidney toxicity. Tests performed for liver function:ALP:
Alkaline Phosphatase, ALT: Alanine Aminotransferase, TBIL-total bilirubin, GGT -G-glutamyl transferase,and for kidney function:BUN: Blood urea nitrogen. Results

injured brain [3] = conditions: mouse, in vivo, iv; cited from earlier work
Text: We have previously identified a tetrapeptide, CAQK, that accumulates in the ECM of the injured brain. […] We reasoned that knowing the target molecule CAQK binds to would likely give hints of the possible nature of such an activity. Previous work has shown that CAQK binds to a chondroitin sulfate proteoglycan (CSPG)-rich protein complex, the expression of which is elevated following an inju ... || Given the CAQK accumulation in the injured brain and binding to TnC in injured ECM, and the functional activities observed with other homing peptides, it seemed possible that CAQK might affect the course of TBI. To prepare for functional testing of CAQK, we performed CAQK half-life analyses using a mouse model of CCI. […] Initial clearance from the circulation through glomerular filtration is expected for a small peptide, explaining the short half-life. A small per ...

half-life after single injection versus daily injections over a week ([2]; healthy Sprague-Dawley rats, 10 mg/kg i.v. daily for 7 days, Day 1 and Day 7): remained the same
pK profile after 7-day repeat dosing ([2]; repeat IV dosing, 7 days): unaltered
AUC(0-inf) (in vivo): 27800 ng·h/mL
AUC(0-t) (in vivo): 27400 ng·h/mL
C0 (in vivo): 45100 ng/mL
CL2 (in vivo): 13 mL/min/kg
MRT (in vivo): 4.2 h
T1/2, initial rapid clearance from the blood (in vivo): 9 min
T1/2, second elimination phase (in vivo): 4.1 h
V1 (in vivo): 0.28 L/kg
V2 (in vivo): 1.6 L/kg
Vd (in vivo): 1.9 L/kg
clearance (in vivo): 7.5 mL/min/kg
half-life (in vivo): 4.2 h
k10 (in vivo): 1.6 h⁻¹
k12 (in vivo): 2.8 h⁻¹
k21 (in vivo): 0.48 h⁻¹
t1/2Alpha (in vivo): 9 min
SMILES: C[C@H](NC(=O)[C@@H](N)CS)C(=O)N[C@@H](CCC(N)=O)C(=O)N[C@@H](CCCCN)C(N)=O [CAQK, cysteine-alanine-glutamine-lysine] (H-CAQK-NH2)
estimated half-life in the brain (injured brain [1]): about 5.8 h
accumulation in the injured side of the brain versus the contralateral side (injured brain [1]; iv): over eightfold
ALP (Safety study in CCI mice; 1 mg/kg i.v. daily for 7 days): 45 ± 5.3 U/L
ALT (Safety study in CCI mice; 1 mg/kg i.v. daily for 7 days): 24.3 ± 6.8 U/L
BUN (Safety study in CCI mice; 1 mg/kg i.v. daily for 7 days): 21.3 ± 3.5 mg /bL
GGT (Safety study in CCI mice; 1 mg/kg i.v. daily for 7 days): < 5 U/L
TBIL (Safety study in CCI mice; 1 mg/kg i.v. daily for 7 days): 0.3 mg/dL
ALP (Safety study in CCI mice; 5 mg/kg i.v. daily for 7 days): 47.4 ± 8.2 U/L
ALT (Safety study in CCI mice; 5 mg/kg i.v. daily for 7 days): 23.4 ± 4.9 U/L
BUN (Safety study in CCI mice; 5 mg/kg i.v. daily for 7 days): 22.2 ± 1 mg /bL
GGT (Safety study in CCI mice; 5 mg/kg i.v. daily for 7 days): < 5 U/L
TBIL (Safety study in CCI mice; 5 mg/kg i.v. daily for 7 days): 0.3 mg/dL
ALP (Safety study in CCI mice; 25 mg/kg i.v. daily for 7 days): 42.6 ± 7.6 U/L
ALT (Safety study in CCI mice; 25 mg/kg i.v. daily for 7 days): 34.8 ± 13.2 U/L
BUN (Safety study in CCI mice; 25 mg/kg i.v. daily for 7 days): 24.8 ± 2.05 mg /bL
GGT (Safety study in CCI mice; 25 mg/kg i.v. daily for 7 days): < 5 U/L
TBIL (Safety study in CCI mice; 25 mg/kg i.v. daily for 7 days): 0.3 mg/dL
effects on body weight, organ weight, or clinical pathology (Safety study in CCI mice; TBI mice, daily i.v. doses (1, 5, and 25 mg/kg)): no effects
accumulation in other organs (injured brain [3]): No other organs showed peptide accumulation except the kidneys
